Measurements as given in US20240217982A1, “KRAS INHIBITORS” (Bristol-Myers Squibb Company, priority 2021, published 2024).

How the values were obtained:
KRAS G12D [1] = molecular target: T1, KRAS G12D (Homo sapiens (Human), UniProt P01116, G12D); test: KRAS G12D RAF Disruption Assay (HTRF); format: biochemical; details: recombinant GMPPNP-loaded KRAS G12D (5 nM), GST-RAF1 RBD (9 nM), HTRF signal
Method: Recombinant GMPPNP-loaded KRAS G12D (5 nM) was treated with compound at room temperature for 20 minutes in assay buffer (50 mM Tris pH 7.5, 100 mM NaCl, 1 mM MgCl2, 1 mM DTT, 100 ug/mL BSA).

KRAS G12D [2] = molecular target: T1, KRAS G12D; test: KRAS G12D Nucleotide Exchange Assay (HTRF); format: biochemical; details: recombinant GDP-loaded KRAS G12D (20 nM), BIODIPY-labeled GDP (400 nM), recombinant SOS (10 nM), HTRF signal
Method: Recombinant GDP-loaded KRAS G12D (20 nM) was treated with compound at room temperature for 20 minutes in assay buffer (10 mM Hepes pH 7.4, 150 mM NaCl, 5 mM MgCl2, 0.0025% Igepal-CA630, 0.05% BSA, 1 mM DTT, 0.5 nM SA-Tb). BIODIPY-labeled GDP (400 nM) and recombinant SOS (10 nM) were added, and the reaction was incubated for 30 minutes.

T1 sequence (P01116-2 other isoform, or with tags, fused parts or gaps G12D): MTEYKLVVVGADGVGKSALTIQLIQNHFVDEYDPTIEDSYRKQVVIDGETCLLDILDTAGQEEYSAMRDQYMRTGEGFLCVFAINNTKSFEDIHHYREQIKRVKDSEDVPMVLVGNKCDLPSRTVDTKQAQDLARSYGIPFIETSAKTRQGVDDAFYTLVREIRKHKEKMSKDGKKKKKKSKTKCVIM

| Structure (SMILES) | KRASG12D RAF Disruption Assay (IC50, µM) (KRAS G12D [1]) | KRASG12D Nucleotide Exchange Assay (IC50, µM) (KRAS G12D [2]) |
| --- | --- | --- |
| CCc1cccc2cccc(-c3ccc4c(N5CC[C@H]6CC[C@@H](C5)N6)nc(OC[C@@]56CCCN5C[C@H](F)C6)nc4c3F)c12 [Example 11-8, 2-{[(2R,7aS)-2-fluoro-hexahydro-1H-pyrrolizin-7a-yl]methoxy}-4-[(1S,6R)-3,9-diazabicyclo[4.2.1]nonan-3-yl]-7-(8-ethylnaphthalen-1-yl)-8-fluoroquinazoline] | 54400 nM | 2000 nM |
| Cc1cc(N)nc(-c2ccc3c(N4CC[C@H]5CC[C@@H](C4)N5)nc(OC[C@@]45CCCN4C[C@H](F)C5)nc3c2F)c1C(F)(F)F [Example 12-1, 6-(2-{[(2R,7aS)-2-fluoro-hexahydro-1H-pyrrolizin-7a-yl]methoxy}-4-[(1S,6R)-3,9-diazabicyclo[4.2.1]nonan-3-yl]-8-fluoroquinazolin-7-yl)-4-methyl-5-(trifluoromethyl)pyridin-2-amine] | 6300 nM | 30 nM |
| Cc1cc(N)nc(-c2ccc3c(N4CC[C@H]5CC[C@@H](C4)N5)nc(OC[C@]45CCCN4C[C@H](F)C5)nc3c2F)c1C(F)(F)F [Example 12-2, 6-(2-{[(2R,7aR)-2-fluoro-hexahydro-1H-pyrrolizin-7a-yl]methoxy}-4-[(1S,6R)-3,9-diazabicyclo[4.2.1]nonan-3-yl]-8-fluoroquinazolin-7-yl)-4-methyl-5-(trifluoromethyl)pyridin-2-amine] | 80000 nM | 330 nM |
| Cc1cc(N)nc(-c2ccc3c(N4CC[C@H]5CC[C@@H](C4)N5)nc(OCC45CCCN4CC(F)(F)C5)nc3c2F)c1C(F)(F)F (stereo partly drawn) [Example 12-4, 6-{4-[(1S,6R)-3,9-diazabicyclo[4.2.1]nonan-3-yl]-2-[(2,2-difluoro-hexahydro-1H-pyrrolizin-7a-yl)methoxy]-8-fluoroquinazolin-7-yl}-4-methyl-5-(trifluoromethyl)pyridin-2-amine] | >100000 nM | 1100 nM |
| Cc1cc(N)nc(-c2c(Cl)cc3c(N4CC[C@H]5CC[C@@H](C4)N5)nc(OC[C@@]45C[C@@H](F)CN4CC4(CC4)C5)nc3c2F)c1C(F)(F)F [Example 13-1, 6-(2-{[(6′R, 7′aR)-6′-fluoro-hexahydrospiro[cyclopropane-1,2′-pyrrolizine]-7′a-yl]methoxy}-6-chloro-4-[(1S,6R)-3,9-diazabicyclo[4.2.1]nonan-3-yl]-8-fluoroquinazolin-7-yl)-4-methyl-5-(trifluoromethyl)pyridin-2-amine] | 220 nM | 10 nM |
